We go through 1 compound from PMC11898290, “TFEB promotes Ginkgetin-induced ferroptosis via TRIM25 mediated GPX4 lysosomal degradation in EGFR wide-type lung adenocarcinoma” (Theranostics, 2025).

Assay [1] addresses T1, TFEB-GFP (pcDNA3.1-TFEB-GFP) (Homo sapiens, UniProt P19484).
T1 sequence (P19484 1-476): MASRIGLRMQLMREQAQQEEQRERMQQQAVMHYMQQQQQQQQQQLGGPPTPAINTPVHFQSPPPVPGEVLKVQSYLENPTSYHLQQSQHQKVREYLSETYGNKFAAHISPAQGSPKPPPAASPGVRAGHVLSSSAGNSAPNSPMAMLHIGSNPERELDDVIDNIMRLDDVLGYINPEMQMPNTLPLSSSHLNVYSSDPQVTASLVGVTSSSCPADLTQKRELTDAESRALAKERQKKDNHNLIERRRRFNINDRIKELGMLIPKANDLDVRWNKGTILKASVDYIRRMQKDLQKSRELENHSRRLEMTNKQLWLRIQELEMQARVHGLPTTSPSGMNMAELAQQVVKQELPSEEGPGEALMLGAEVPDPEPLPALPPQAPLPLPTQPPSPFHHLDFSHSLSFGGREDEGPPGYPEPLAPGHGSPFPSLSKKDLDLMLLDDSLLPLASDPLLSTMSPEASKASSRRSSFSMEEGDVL
The assay is described as follows: microscale thermophoresis, GFP-fusion in cell lysate. Format: binding.

Assay [2] has as its target T2, TFEB (Homo sapiens, UniProt P19484).
T2 construct: TFEB protein amine-coupled on CM5 chip (about 6500 RU)
T2 sequence (P19484 1-476): T1 sequence (P19484 1-476)
The assay can be described thus: SPR, Biacore S200, CM5 chip, steady-state fit. Format: binding. As to conditions: 10 mM HEPES pH 7.4, 150 mM NaCl, 0.05% P20, 2% DMSO, 25 °C; GK 0.137-100 µM.

pKd: −log10 of the molar value.

As to `COc1cc(O)c2c(=O)cc(-c3ccc(OC)c(-c4c(O)cc(O)c5c(=O)cc(-c6ccc(O)cc6)oc45)c3)oc2c1` [ginkgetin], the pKd in assay [1] was 4.55. In assay [2], the Kd result was “The binding affinity of GK to TFEB was determined by the SPR assay”.
